Consider one sequence from paper PMC10067601, “Identification of a peptide ligand for human ALDH3A1 through peptide phage display: Prediction and characterization of protein interaction sites and inhibition of ALDH3A1 enzymatic activity” (Frontiers in Molecular Biosciences, 2023).

In this test the test system is human recombinant ALDH3A1 (6-His). The test is described as follows: Phage display panning, Ph.D.-12 random 12-mer library (3 rounds, clones sequenced). It is filed as binding. As to conditions: for Frequency of appearance: clones out of 33 sequenced after third panning round, 75 μg ALDH3A1 coated, Ph.D.-12 library. On the procedure: For phage titration, 50 μL of an overnight E. coli ER2738 (host strain) culture were used for the inoculation of 5 mL Luria Broth (LB) which was subsequently cultivated at 37°C (220 rpm). When E. coli ER2738 culture reached an OD600 value of approximately 0.5, 200 μL of the culture were mixed with 10 μL of the phage solution and the mixture was vortexed and incubated for 5 min at room temperature (RT). Subsequently, it was diluted in 3 mL of warm agarose top (0.7% agarose, 0.5% yeast extract, 1% Bacto-Tryptone, 0.5% NaCl, 0.1% MgCl2•H2O) and poured in LB/IPTG/Xgal agar plates (LB agar plates with 0.004% X-gal 0.005% IPTG). Plates were incubated overnight at 37°C.
The procedure was initiated with the amplification of the phage plaques as described in 2.5 with the exception that after the first centrifugation, 500 μL of the supernatant was transferred into a fresh tube. Then, 200 μL PEG/NaCl were added and the sample was mixed and incubated at RT for 10 min. The sample was subsequently centrifuged at 14,000 rpm, for 10 min at 4°C and the supernatant was removed. After the second round of centrifugation under the same conditions, the remaining supernatant was carefully discarded. Pellet was then re-suspended in 100 μL of iodine buffer (4M NaI, 1 mM EDTA, 10 mM Tris-HCl, pH 8.0) and 250 μL of ethanol were subsequently added. The mixture was incubated at RT for 10 min, centrifuged at 14,000 rpm for 10 min at RT, and the supernatant was discarded. Finally, 70% of pure ethanol was used for DNA wash and the pellet was suspended in 30 μL sterilized ddH2O. Samples were stored at −20°C until needed. Isolated M13 phage ssDNA (∼120 ng) was subjected to agarose gel electrophoresis, and the residual volume of the ssDNA was sent for single extension sequencing from the primer 5′-CCCTCATAGTTAGCGTAACG-3’. Sequencing was conducted by VBC biotech (Vienna, Austria). The resulting sequences were used for the estimation of the respective 12-mer peptides. […]

“Also recorded” adds a separate entry of the source.

Regarding “WPTYVSPFRSPP [P1, …, prevailing 12-mer phage display peptide, synthesised by Genecust]”, the Frequency of appearance is listed as 30 out of 33. The Frequency of appearance (listed as WPTYVSPFRSPP) is recorded as 30 out of the 33. Also, the “Strength of interaction with recombinant hALDH3A1” value (inferred from frequency of appearance) was “strongest and most specific interaction with the recombinant hALDH3A1; also recorded: appeared to bind most efficiently to hALDH3A1”.
